Experimental data reported in patent US8188008B2, “Herbicidally and insecticidally active 4-phenyl-substituted pyridazinones” (Bayer Cropscience AG, priority 2008, dated 2012).

Tested on: green peach aphid (Myzus persicae)
Experiment: Myzus test (MYZUPE spray treatment)
Type: in vivo
Conditions: spray treatment of Chinese cabbage discs, application rate 500 g/ha; 100% = all aphids killed
Experimental: Myzus Test (MYZUPE Spray Treatment) [table] To produce a suitable preparation of active compound, 1 part by weight of active compound is mixed with the stated amounts of solvents and emulsifier, and the concentrate is diluted with emulsifier-containing water to the desired concentration. Discs of Chinese cabbage (Brassica pekinensis) which are infested by all stages of the green peach aphid (Myzus persicae) are sprayed with an active compound preparation of the desired concentration. After the desired period of time, the effect in % is determined. 100% means that all aphids have been killed; 0% means that none of the aphids have been killed.

Cn1ncc(O)c(-c2ccc(Cl)c(Cl)c2)c1=O [I-1-a-4]
effect in % (aphids killed): at least 80%
